# Source: patent US8853246B2 (Dow AgroSciences LLC, priority 2009, dated 2014)
# Read-outs that look alike come from different tables or passages of the source.
# Assays:
# [1] = test system: Green Peach Aphid (Myzus Persicae); test: Insecticidal test for green peach aphid in foliar spray assay (col. MYZUPE); type: in vivo; details: Myzus persicae, 72 h, read-out: MYZUPE 200 ppm (Corrected % Control, rating)
# Method in brief: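 Corrected % control derives from microscope counts of live aphids per plant, treated against diluent-only checks, 3 days after foliar spraying at ~25 °C and 40% RH. Test solution was 200 ppm in 0.025% aqueous Tween 20, applied to both leaf sides of infested cabbage seedlings, four pots each.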
# [2] = test system: Sweetpotato Whitefly-Crawler (Bemisia Tabaci); test: Insecticidal test for sweetpotato whitefly-crawler in foliar spray assay (col. BEMITA); type: in vivo; details: Bemisia tabaci, read-out: BEMITA 200 ppm (Corrected % Control, rating)
# Method in brief: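 Percent control, Abbott-corrected against diluent-sprayed plants, from microscope counts of live nymphs 8-9 days after treatment. Test solution at 200 ppm in 0.025% aqueous Tween 20 applied to both leaf sides of egg-infested cotton after a 5-6 day hatch period (82° F, 50% RH).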
SMILES,melting point,pest or weed control at 200 ppm ([1]; green peach aphid),pest or weed control at 200 ppm ([2]; sweetpotato whitefly-crawler),pest or weed control at 200 ppm ([1]; Abbott's correction formula),pest or weed control at 200 ppm ([2]; Abbott's correction formula)
CC(=O)N(C)c1cnc(-c2cccnc2)s1 [Compound 22],162 to 163 °C,< 80%,< 80%,–,–
CN(C(=O)C(C)(C)C)c1cnc(-c2cccnc2)s1 [Compound 23],102 to 105 °C,80 to 100%,< 80%,–,–
CC(C)C(=O)N(C)c1cnc(-c2cccnc2)s1 [Compound 24],113 to 114 °C,80 to 100%,80 to 100%,–,–
CN(C(=O)CC(F)(F)F)c1cnc(-c2cccnc2)s1 [Compound 25],126 to 128 °C,80 to 100%,< 80%,–,–
CN(C(=O)c1cccnc1)c1cnc(-c2cccnc2)s1 [Compound 26],173 to 175 °C,< 80%,< 80%,–,–
COC(=O)CCC(=O)N(C)c1cnc(-c2cccnc2)s1 [Compound 27],127 to 129 °C,80 to 100%,< 80%,–,–
CSCC(C)C(=O)N(C)c1cnc(-c2cccnc2)s1 (stereo not drawn) [Compound 28],98 to 100 °C,80 to 100%,80 to 100%,–,–
CSCC(C)(C)C(=O)N(C)c1cnc(-c2cccnc2)s1 [Compound 29],92 to 94 °C,80 to 100%,80 to 100%,–,–
"CSCCC(=O)N(C)c1cnc(-c2cncc(F)c2)s1 [Compound 30, N-[2-(5-fluoro-pyridin-3-yl)-thiazol-5-yl]-N-methyl-3-methylsulfanyl-propionamide]",111 to 114 °C,80 to 100%,< 80%,–,–
CSCC(C)C(=O)N(C)c1cnc(-c2cncc(F)c2)s1 (stereo not drawn) [Compound 31],75 to 77 °C,80 to 100%,80 to 100%,–,–
CC(C)C(=O)N(C)c1cnc(-c2cncc(F)c2)s1 [Compound 32],156 to 158 °C,80 to 100%,80 to 100%,–,–
CN(C(=O)C(C)(C)C)c1cnc(-c2cncc(F)c2)s1 [Compound 33],153 to 155 °C,< 80%,80 to 100%,–,–
CSCC(C)(C)C(=O)N(C)c1sc(-c2cccnc2)nc1C [Compound 34],83 to 88 °C,80 to 100%,80 to 100%,–,–
Cc1nc(-c2cncc(F)c2)sc1N(C)C(=O)C(C)C [Compound 41],123 °C,80 to 100%,80 to 100%,–,–
CSCC(C)(C)C(=O)N(C)c1sc(-c2cncnc2)nc1C [Compound 53],123 to 125 °C,< 80%,80 to 100%,–,–
CSCCC(=O)Nc1sc(-c2cccnc2)nc1C [Compound 55],136 to 139 °C,80 to 100%,80 to 100%,–,–
CSCC(C)C(=O)Nc1sc(-c2cccnc2)nc1C (stereo not drawn) [Compound 56],132 to 136 °C,80 to 100%,80 to 100%,–,–
Cc1nc(-c2cccnc2)sc1NC(=O)C(C)C [Compound 58],159 to 162 °C,80 to 100%,80 to 100%,–,–
CSCC(C)(C)C(=O)N(C)c1cnc(-c2ccc(Cl)nc2)s1 [Compound 68],104 to 108 °C,80 to 100%,80 to 100%,–,–
CC(C)C(=O)N(C)c1cnc(-c2ccc(Cl)nc2)s1 [Compound 69],155 to 159 °C,< 80%,80 to 100%,–,–
Cc1nc(-c2ccc(F)nc2)sc1NC(=O)C(C)C [Compound 71],182 to 186 °C,80 to 100%,–,–,–
CN(C(=O)OCC[S+](C)[O-])c1cnc(-c2cncc(F)c2)s1 (stereo not drawn) [Compound 84],153 to 155 °C,80 to 100%,–,–,–
CCN(C(=O)OC(C)(C)C)c1cnc(-c2cccnc2)s1 [Compound 477],65 to 67 °C,–,–,–,–
CCN(C(=O)c1ccnc(C)c1)c1sc(-c2cccnc2)nc1Cl [Compound 544],–,–,–,80 to 100%,< 80%
CCN(C(=O)c1ccc(CSC)o1)c1sc(-c2cccnc2)nc1Cl [Compound 545],–,–,–,80 to 100%,< 80%
CCN(C(=O)c1ccc(C[S+](C)[O-])o1)c1sc(-c2cccnc2)nc1Cl (stereo not drawn) [Compound 549],–,–,–,80 to 100%,80 to 100%
CCN(C(=O)Cc1cccs1)c1sc(-c2cccnc2)nc1Cl [Compound 550],–,–,–,< 80%,80 to 100%
CCN(C(=O)C1C(C=C(Cl)Cl)C1(C)C)c1sc(-c2cccnc2)nc1Cl (stereo not drawn) [Compound 552],–,–,–,80 to 100%,< 80%

SMILES,melting point,pest or weed control at 200 ppm ([1]; green peach aphid),pest or weed control at 200 ppm ([2]; sweetpotato whitefly-crawler),pest or weed control at 200 ppm ([1]; Abbott's correction formula),pest or weed control at 200 ppm ([2]; Abbott's correction formula)
CN(C(=O)C1CCCC1)c1sc(-c2cccnc2)nc1Cl [Compound 553],–,–,–,< 80%,80 to 100%
CCN(C(=O)c1cccs1)c1sc(-c2cccnc2)nc1Cl [Compound 554],–,–,–,< 80%,< 80%
CCN(C(=O)c1scnc1C)c1sc(-c2cccnc2)nc1Cl [Compound 555],–,–,–,80 to 100%,< 80%
CCN(C(=O)c1snnc1C)c1sc(-c2cccnc2)nc1Cl [Compound 556],–,–,–,80 to 100%,< 80%
CCN(C(=O)Cc1ccc(C(C)=O)s1)c1sc(-c2cccnc2)nc1Cl [Compound 557],–,–,–,< 80%,< 80%
CCC(C[S+](C)[O-])C(=O)N(CC)c1sc(-c2cccnc2)nc1Cl (stereo not drawn) [Compound 559],–,–,–,80 to 100%,80 to 100%
CCC(CS(C)(=O)=O)C(=O)N(CC)c1sc(-c2cccnc2)nc1Cl (stereo not drawn) [Compound 560],–,–,–,80 to 100%,80 to 100%
CCN(C(=O)Cc1ccc(Cl)nc1)c1sc(-c2cccnc2)nc1Cl [Compound 561],–,–,–,80 to 100%,< 80%
CCN(C(=O)Cc1ccncc1)c1sc(-c2cccnc2)nc1Cl [Compound 562],–,–,–,80 to 100%,< 80%
CCN(C(=O)c1c(F)cccc1F)c1sc(-c2cccnc2)nc1Cl [Compound 563],–,–,–,80 to 100%,< 80%
CCN(C(=O)C(C)C(C)[S+](C)[O-])c1sc(-c2cccnc2)nc1Cl (stereo not drawn) [Compound 565],–,–,–,80 to 100%,80 to 100%
CN(C(=O)C1(C)CC1)c1sc(-c2cccnc2)nc1Cl [Compound 566],–,–,–,80 to 100%,80 to 100%
Cc1nc(-c2cccnc2)sc1N(CCS(C)(=O)=O)C(=O)OC(C)(C)C [Compound 568],–,–,–,< 80%,< 80%
CC1CC1C(=O)N(C)c1sc(-c2cccnc2)nc1Cl (stereo not drawn) [Compound 569],–,–,–,80 to 100%,80 to 100%
CCN(C(=O)c1cccnc1)c1sc(-c2cccnc2)nc1Cl [Compound 571],–,–,–,80 to 100%,< 80%
CCN(C(=O)c1ccoc1)c1sc(-c2cccnc2)nc1Cl [Compound 573],–,–,–,< 80%,< 80%
CCN(C(=O)c1ccccn1)c1sc(-c2cccnc2)nc1Cl [Compound 574],–,–,–,80 to 100%,< 80%
CCN(C(=O)Cc1ccc(Cl)cc1)c1sc(-c2cccnc2)nc1Cl [Compound 575],–,–,–,80 to 100%,< 80%
CCN(C(=O)c1ccco1)c1sc(-c2cccnc2)nc1Cl [Compound 576],–,–,–,80 to 100%,< 80%
CCN(C(=O)c1cnn(C(C)(C)C)c1C)c1sc(-c2cccnc2)nc1Cl [Compound 578],–,–,–,80 to 100%,80 to 100%
Cc1nc(-c2cncc(F)c2)sc1N(C)C(=O)C1CCCNC1 (stereo not drawn) [Compound 581],–,–,–,< 80%,< 80%
"CCCC(C)C(=O)N1CCCC(C(=O)N(C)c2sc(-c3cncc(F)c3)nc2C)C1 (stereo not drawn) [Compound 582, 1-(2-methyl-pentanoyl)-piperidine-3-carboxylic acid [2-(5-fluoro-pyridin-3-yl)-4-methyl-thiazol-5-yl]-methyl-amide]",–,–,–,80 to 100%,80 to 100%
COCC(=O)N1CCCC(C(=O)N(C)c2sc(-c3cncc(F)c3)nc2C)C1 (stereo not drawn) [Compound 583],–,–,–,80 to 100%,80 to 100%
Cc1nc(-c2cncc(F)c2)sc1N(C)C(=O)C1CCCN(C(=O)CC(F)(F)F)C1 (stereo not drawn) [Compound 584],–,–,–,< 80%,< 80%
CCOC(=O)N1CCCC(C(=O)N(C)c2sc(-c3cncc(F)c3)nc2C)C1 (stereo not drawn) [Compound 586],–,–,–,80 to 100%,80 to 100%
CCCCN1CCCC(C(=O)N(C)c2sc(-c3cncc(F)c3)nc2C)C1 (stereo not drawn) [Compound 587],–,–,–,80 to 100%,80 to 100%
CSCC(C)C(=O)Nc1sc(-c2cccnc2)nc1Cl (stereo not drawn) [Compound 588],–,–,–,80 to 100%,80 to 100%
